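Grown in 96-well plates, cells were treated for 48 hours with each compound at five concentrations. Insufficient inhibition: endpoint recorded as highest concentration tested. The concentration for 50% growth inhibition is given as GI50.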 Active and inactive are the calls of the source. Cut-off read from the data, not from the text of the source: active = GI50 up to about 1.1 µM and inactive = higher.

The results in this text go back to ChEMBL document CHEMBL1201862, “PubChem BioAssay data set” (2004).

Among the test systems are A549; EKVX; HCT-15; IGROV-1; LXFL 529; M14; OVCAR-3; OVCAR-8; RPMI-8226; SK-MEL-2; SN12C; SNB-19; SNB-75; SW-620; TK-10; U-251; HCC 2998; OVCAR-4; MDA-N; NCI-H226.
Holding throughout (assay): NCI-60 cell line screen, 48 h

Regarding `Oc1nc(S)nc2c1CCCN2`, the GI50 with A549 is > 100 µM (inactive); with EKVX, > 100 µM (inactive); with HCT-15, over 100 µM; in the assay with IGROV-1, > 100 µM (inactive); in the assay on LXFL 529, > 100 µM (inactive); in the assay with M14, > 100 µM (inactive). For the same compound, the GI50 with OVCAR-3, in the assay with OVCAR-8, with RPMI-8226, with SK-MEL-2, with SN12C and with SNB-19 was > 100 µM (inactive) throughout. In addition, the GI50 in the assay with SNB-75, with SW-620, in the assay with TK-10 and with U-251 was > 100 µM (inactive) in each case.

Turning to `CC(C)=C1CCC(CN(C)C)C1=O` (stereo not given), the GI50 in the assay with A549 was > 100 µM (inactive); in the assay with EKVX, 17.7 µM (inactive); with HCC 2998, 19.1 µM (inactive); with HCT-15, 14.8 µM; in the assay on IGROV-1, > 100 µM (inactive); with LXFL 529 it was 12.8 µM (inactive). In addition, the GI50 in the assay with M14 is 14.4 µM (inactive); in the assay with OVCAR-3 it was 17.6 µM (inactive); with OVCAR-4, 15 µM (inactive); in the assay on OVCAR-8 it was 22.3 µM (inactive); in the assay on SK-MEL-2, 26.3 µM (inactive); with SN12C, 18.4 µM (inactive). Moreover, the GI50 in the assay on SNB-19 is > 100 µM (inactive); with SNB-75, 0.234 µM (active); in the assay on SW-620, 6.12 µM (inactive); in the assay with TK-10, 17.1 µM (inactive); in the assay on U-251, > 100 µM (inactive).

For `Cn1c2c(c3ccccc31)CCN(CCCCN1CCN(c3cccc(Cl)c3)CC1)C2=O`, the GI50 in the assay on A549 is 20.5 µM (inactive); in the assay on EKVX, 21.5 µM (inactive); with HCT-15, 11.6 µM; with IGROV-1, 15.9 µM (inactive); in the assay on LXFL 529, 11.1 µM (inactive); with M14, 3.3 µM (inactive). Also, the GI50 is 15.5 µM (inactive) in the assay with OVCAR-3; 14.9 µM (inactive) with OVCAR-4; 17.8 µM (inactive) in the assay on OVCAR-8; 5.66 µM (inactive) in the assay with RPMI-8226; 16.7 µM (inactive) with SK-MEL-2; 12.8 µM (inactive) in the assay on SN12C. Further, the GI50 in the assay with SNB-19 was 17.7 µM (inactive); with SNB-75, 0.0975 µM (active); in the assay on SW-620, 12.6 µM (inactive); in the assay on TK-10, 11.5 µM (inactive); with U-251 it was 11.6 µM (inactive).

As to `CC(=O)c1c(O)c(C)c(O)c(Cc2c(O)c3c(c(C(=O)/C=C/c4ccccc4)c2O)OC(C)(C)C=C3)c1O` [ROTTLERIN], the GI50 in the assay with A549 is 0.986 µM (active); in the assay on EKVX it was 2.68 µM (inactive); with HCC 2998, 2.23 µM (inactive); in the assay on HCT-15 it was 2.52 µM; in the assay with IGROV-1 it was 3.1 µM (inactive); in the assay with M14, 3.23 µM (inactive). Besides, the GI50 in the assay with MDA-N was 3.14 µM (inactive); in the assay with NCI-H226, 3.45 µM (inactive); with OVCAR-3 it was 2.7 µM (inactive); with OVCAR-4, 2.79 µM (inactive); in the assay on OVCAR-8 it was 3.08 µM (inactive); in the assay on RPMI-8226, 1.79 µM (inactive). For the same compound, the GI50 is 1.34 µM (inactive) in the assay with SK-MEL-2; 2.21 µM (inactive) with SN12C; 2.34 µM (inactive) with SNB-19; 1.27 µM (inactive) in the assay with SNB-75; 3.19 µM (inactive) in the assay with SW-620; 2.98 µM (inactive) in the assay on TK-10. Moreover, the GI50 in the assay with U-251 is 2.31 µM (inactive).

As to `COc1cc(C2c3cc4c(cc3OC(NCCc3ccccc3)C2C)OCO4)cc(OC)c1OC` (stereo not given), the GI50 was 0.452 µM (active) in the assay on A549; 1.56 µM (inactive) with EKVX; 0.282 µM (active) in the assay with HCC 2998; 0.385 µM in the assay with HCT-15; 0.367 µM (active) in the assay with IGROV-1; 0.356 µM (active) in the assay on M14. Besides, the GI50 in the assay on MDA-N was 0.0638 µM (active); in the assay on NCI-H226 it was 0.871 µM (active); in the assay on OVCAR-3 it was 0.378 µM (active); in the assay on OVCAR-4, 0.778 µM (active); in the assay on OVCAR-8 it was 0.441 µM (active); in the assay on RPMI-8226, 0.319 µM (active). In addition, the GI50 in the assay with SK-MEL-2 was 0.393 µM (active); in the assay with SN12C it was 0.698 µM (active); in the assay with SNB-19 it was 0.455 µM (active); in the assay on SNB-75, 0.198 µM (active); in the assay on SW-620 it was 0.316 µM (active); in the assay on TK-10, 26.5 µM (inactive). The GI50 in the assay with U-251 is 0.348 µM (active).

`OC1C2[C@@H](O)CCCN2C[C@@H](O)[C@H]1O` (stereo not given in full): the GI50 is > 100 µM (inactive) with A549; > 100 µM (inactive) in the assay on EKVX; > 100 µM (inactive) in the assay on HCC 2998; over 100 µM in the assay with HCT-15; > 100 µM (inactive) in the assay on IGROV-1; > 100 µM (inactive) in the assay with M14. Besides, the GI50 in the assay on MDA-N, in the assay on NCI-H226, with OVCAR-3, in the assay on OVCAR-4, in the assay with OVCAR-8 and in the assay with RPMI-8226 was > 100 µM (inactive) in each case. The GI50 in the assay on SK-MEL-2, in the assay on SN12C, in the assay on SNB-19, with SNB-75, in the assay with SW-620 and with TK-10 was > 100 µM (inactive) throughout. For the same compound, the GI50 in the assay on U-251 was > 100 µM (inactive).

As for `CC1(C)OC2C(O)C(CO)OC2(C(F)F)O1` (stereo not given), the GI50 with A549 is > 100 µM (inactive); with EKVX it was > 100 µM (inactive); in the assay on HCC 2998 it was > 100 µM (inactive); with HCT-15 it was over 100 µM; in the assay with IGROV-1, > 100 µM (inactive); in the assay on M14 it was > 100 µM (inactive). The GI50 with MDA-N, in the assay with NCI-H226, with OVCAR-3, with OVCAR-4, in the assay on OVCAR-8 and in the assay with RPMI-8226 was > 100 µM (inactive) throughout. Further, the GI50 was > 100 µM (inactive) in the assay with SK-MEL-2; > 100 µM (inactive) in the assay with SN12C; > 47.1 µM (inactive) with SNB-19; > 100 µM (inactive) in the assay on SNB-75; > 100 µM (inactive) in the assay on SW-620; > 100 µM (inactive) in the assay on TK-10. For the same compound, in the assay on U-251, the GI50 is > 100 µM (inactive).

For `NC1=CN(CCCO)C2=N/C(=C\c3ccco3)C(=O)N12`, the GI50 with A549 is > 100 µM (inactive); in the assay with EKVX, > 100 µM (inactive); with HCC 2998, > 100 µM (inactive); with HCT-15 it was over 100 µM; in the assay on IGROV-1, > 100 µM (inactive); in the assay with M14 it was > 100 µM (inactive). For the same compound, the GI50 in the assay with MDA-N, in the assay with NCI-H226, in the assay with OVCAR-3, in the assay on OVCAR-4, with OVCAR-8 and with RPMI-8226 was > 100 µM (inactive) in each case. Moreover, the GI50 in the assay with SK-MEL-2, with SN12C, with SNB-19, with SNB-75, in the assay with SW-620 and in the assay with TK-10 was > 100 µM (inactive) in each case. The GI50 in the assay with U-251 is > 100 µM (inactive).

Turning to `O=C(O)CCC1CCc2cccc(OCC(=O)O)c2C1=O` (stereo not given), the GI50 with A549 is > 100 µM (inactive); in the assay with EKVX, > 100 µM (inactive); in the assay on HCC 2998, > 100 µM (inactive); with HCT-15 it was over 100 µM; in the assay on IGROV-1, > 100 µM (inactive); in the assay on LXFL 529, > 100 µM (inactive). In addition, the GI50 in the assay with M14, in the assay with OVCAR-3, in the assay with OVCAR-4, in the assay on OVCAR-8, in the assay on RPMI-8226 and with SN12C was > 100 µM (inactive) each time. Also, the GI50 with SNB-19, in the assay with SNB-75, in the assay on SW-620, in the assay with TK-10 and in the assay on U-251 was > 100 µM (inactive) throughout.

Take `CC(C)=CCC[C@]1(C)C=Cc2c(O)c3c(c(CC=C(C)C)c2O1)O[C@]12C(=C[C@@H]4CC1C(C)(C)O[C@@]2(C/C=C(/C)C(=O)O)C4=O)C3=O`: the GI50 is 0.863 µM (active) in the assay with A549; 1.67 µM (inactive) with EKVX; 1.34 µM (inactive) with HCC 2998; 0.813 µM in the assay with HCT-15; 1.43 µM (inactive) with IGROV-1; 1.57 µM (inactive) in the assay with M14. Further, the GI50 in the assay on MDA-N is 0.47 µM (active); in the assay on NCI-H226, 0.774 µM (active); in the assay on OVCAR-3, 1.38 µM (inactive); in the assay with OVCAR-4, 2.38 µM (inactive); in the assay on OVCAR-8, 0.643 µM (active); in the assay on RPMI-8226, 0.368 µM (active). Also, the GI50 in the assay on SK-MEL-2 was 2.02 µM (inactive); in the assay on SN12C, 0.719 µM (active); in the assay with SNB-19, 2.12 µM (inactive); in the assay with SNB-75, 1.63 µM (inactive); with SW-620, 0.452 µM (active); in the assay on TK-10, 0.861 µM (active). Moreover, the GI50 in the assay on U-251 is 0.676 µM (active).

With `C=C1C(=O)O[C@@H]2C[C@@H]3[C@]4(CC[C@]5(C)[C@@H]([C@H](C)CC/C=C(\C)C=O)CC[C@@]35C)C[C@]4(CCC(=O)OC)[C@H]12`, the GI50 is 6.64 µM (inactive) in the assay on A549; 2.99 µM (inactive) with EKVX; 2.14 µM (inactive) in the assay on HCC 2998; 1.78 µM with HCT-15; 2.13 µM (inactive) in the assay with IGROV-1; 1.36 µM (inactive) with M14. In addition, the GI50 in the assay with MDA-N is 1.61 µM (inactive); in the assay with NCI-H226, 3.4 µM (inactive); in the assay with OVCAR-3, 1.62 µM (inactive); in the assay with OVCAR-4, 1.7 µM (inactive); with OVCAR-8, 1.12 µM (active); in the assay on RPMI-8226, 0.295 µM (active). Also, the GI50 was 1.77 µM (inactive) with SK-MEL-2; 1.9 µM (inactive) in the assay with SN12C; 1.97 µM (inactive) in the assay with SNB-19; 2.4 µM (inactive) in the assay on SNB-75; 1.72 µM (inactive) with SW-620; 2.46 µM (inactive) with TK-10. Also, in the assay with U-251, the GI50 was 1.38 µM (inactive).
